Holding throughout (assay): NCI-60 cell line screen, 48 h
Assay [1] concerns NCI-H23 lung.
For assay [2], the system named is SF-539 CNS.
Assay [3] concerns HOP-62 NSCLC.
The test system of assay [4] is HS 578T breast.
The test system of assay [5] is U251 CNS.
Assay [6] relates to COLO 205 colon.
Assay [7] deals with HCT-15 colon.
Assay [8] relates to SK-MEL-5 melanoma.
The test system of assay [9] is HCC-2998 colon.
The test system of assay [10] is HL-60(TB) leukemia.
Assay [11] has as its system A498 renal.
The test system of assay [12] is SW-620 colon.
For assay [13], the system named is TK-10 renal.
The subject of assay [14] is MALME-3M melanoma.
Assay [15] has as its system DU-145 prostate.
Assay [16] concerns SNB-75 CNS.

In PubChem BioAssay (NCI) one finds TGI data, which are given here for 9 compounds.

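Protocol summary: plate cells (96-well), add compound at 5 concentrations, incubate 48 h, interpolate endpoints linearly. TGI denotes the concentration required for complete inhibition of growth.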 Bounds are passed on as bounds.

Regarding `CCCCCCCCCCCCCCCCCCNc1ccn(C2OC(COP(=O)(O)OCC3OC(n4ccc(N)nc4=O)C(O)C3O)C(O)C2O)c(=O)n1` (stereo not drawn), the TGI in assay [1], in assay [2], in assay [3], in assay [4], in assay [5] and in assay [6] was more than 100 µM each time. In addition, the TGI in [7], in [8], in [9], in [10], in assay [11] and in [12] was more than 100 µM throughout. The TGI in [13], in assay [14], in [15] and in assay [16] was more than 100 µM throughout.

As to `O=C1CC(O)c2cscc21` (stereo not drawn), the TGI in assay [1], in [2], in [3], in [4], in assay [5] and in assay [6] was more than 100 µM throughout. Further, the TGI in [7], in assay [8], in assay [9], in [10], in assay [11] and in assay [12] was more than 100 µM throughout. Also, the TGI in assay [13], in assay [14], in assay [15] and in assay [16] was more than 100 µM each time.

On to `COC(=O)[C@H](Cc1ccccc1)NC(=O)c1ccc(CNC(=O)/C=C/c2csc(-c3ccccc3)n2)cc1`, for which the TGI is more than 87.4 µM in assay [1]; 13 µM in assay [2]; 52.5 µM in assay [3]; 58.1 µM in assay [4]; more than 72.1 µM in assay [5]; more than 83.2 µM in assay [6]. Also, the TGI in assay [7] was more than 60.4 µM; in assay [8], 14.7 µM; in assay [9], 19.4 µM; in assay [10], more than 100 µM; in assay [11], 34.5 µM; in [12], more than 100 µM. Moreover, the TGI is 45.4 µM in assay [13], 11.8 µM in [14], more than 74.6 µM in [15] and 42 µM in [16].

For `CN(NC1=NCCO1)c1ccc2ccccc2c1`, the TGI was more than 100 µM in [1]; 82.6 µM in [2]; more than 100 µM in assay [3]; more than 100 µM in [4]; more than 100 µM in [5]; more than 100 µM in assay [6]. Besides, the TGI was more than 100 µM in assay [7]; 93.3 µM in [8]; 99.4 µM in assay [9]; 52.7 µM in assay [10]; more than 100 µM in assay [11]; more than 100 µM in assay [12]. For the same compound, the TGI was more than 100 µM in assay [13], more than 100 µM in [14], more than 100 µM in assay [15] and 74.7 µM in [16].

With `Cc1ccc(S(=O)(=O)N(CC(O)COc2ccccc2)c2c(F)cccc2F)cc1` (stereo not drawn), the TGI in assay [1] turned out to be 44.8 µM; in assay [2] it was 33 µM; in [3], 42.7 µM; in [4], 46.1 µM; in assay [5] it was 29.1 µM; in assay [6], 27.9 µM. For the same compound, the TGI in assay [7] came to 37 µM; in [8], 27.2 µM; in assay [9], 47.6 µM; in assay [10], 93.1 µM; in assay [11], 38.8 µM; in [12], 67.7 µM. For the same compound, the TGI in [13] is 97.5 µM; in assay [14], 52.4 µM; in assay [15], more than 100 µM; in assay [16], 49 µM.

Consider `N#Cc1c(NC(=O)C(F)(F)F)sc2c3c(=O)c4ccccc4c(=O)c=3oc3ccccc3c12`, for which the TGI in assay [1] was 38.4 µM; in assay [2], 32.1 µM; in assay [3], more than 61.9 µM; in assay [4], 14.6 µM; in [5], 41.3 µM; in assay [6] it was 32.8 µM. Also, the TGI is 49.7 µM in assay [7]; 26.6 µM in [8]; 31 µM in [9]; 24.6 µM in [10]; more than 72.3 µM in assay [11]; 67.1 µM in [12]. In addition, the TGI in assay [13] was found to be 74.6 µM; in [14], 13.1 µM; in assay [15], 28.7 µM; in assay [16], 39.4 µM.

`Cc1cccc2sc(NC(=O)NS(=O)(=O)n3cnc4ccccc43)nc12`: the TGI in [1] was 43.6 µM; in assay [2], 78 µM; in assay [3], more than 100 µM; in [4], 52.1 µM; in assay [5] it was 48.2 µM; in assay [6], more than 100 µM. Also, the TGI in assay [7] is more than 100 µM; in [8], 56.3 µM; in assay [9], 30.3 µM; in [10], more than 100 µM; in assay [11], 72.3 µM; in [12] it was more than 100 µM. Besides, the TGI is more than 100 µM in [13], 72 µM in assay [14], more than 100 µM in assay [15] and 63.3 µM in assay [16].

With `CC(C)C(Cl)CCC(C)(Cl)C(=O)CBr` (stereo not drawn), the TGI in assay [1] was determined as 21.8 µM; in [2], 32.1 µM; in [3], 19.6 µM; in assay [4], 23.1 µM; in assay [5] it was 25.8 µM; in assay [6] it was 12 µM. For the same compound, the TGI in assay [7] is 10.6 µM; in [8], 14.3 µM; in [9], 33.1 µM; in assay [10] it was more than 100 µM; in [11], 30.3 µM; in assay [12] it was 5.65 µM. Besides, the TGI was 13.7 µM in [13], 23 µM in assay [14], 36.7 µM in assay [15] and 32.3 µM in assay [16].

For `Cc1ccc(N=N/C(=N/NC(=O)c2ccccc2)c2ccc(N(CCC#N)CCC#N)cc2C)cc1`, the TGI in [1] was more than 100 µM; in assay [2] it was 64.7 µM; in assay [3], more than 100 µM; in assay [4] it was 46.9 µM; in [5], more than 100 µM; in assay [6], more than 100 µM. Moreover, the TGI was more than 100 µM in assay [7]; more than 100 µM in [8]; more than 100 µM in assay [9]; more than 100 µM in assay [10]; 88.1 µM in assay [11]; more than 100 µM in assay [13]. In addition, the TGI in [14], in assay [15] and in assay [16] was more than 100 µM each time.
